US8962844B2, “1,3,4-oxadiazole and 1,3,4-thiadiazole β-lactamase inhibitors” (priority 2012, dated 2015)
Where a name gives a salt, the structure may show the parent alone.

Key:
[1] = tested on: bacterial strains that express the class D cephalosporinase OXA-15; experiment: Standard BLI potentiation MIC / synergy MIC (sMIC) assays run in the presence of a β-lactam, OXA-15 expressing strains; assay type: cell-based, E. coli; details: BLI in combination with a β-lactam; comparison with Avibactam (comparator compound CCC)
Procedure, shortened: (§1)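 Isogenic E. coli DH10B carrying cloned β-lactamase genes on pBR322-derived plasmid (blaTEM-1 promoter, tetracycline 25 μg/mL) tested by CLSI broth microdilution in CAMHB. Test compound and β-lactam each diluted and combined; MIC reported in presence of β-lactam.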

[2] = tested on: bacterial strains that express KPC β-lactamases; experiment: Standard BLI potentiation MIC / synergy MIC (sMIC) assays run in the presence of a β-lactam, KPC expressing strains; assay type: cell-based; details: more active for at least one KPC strain and/or better spectrum of activity than Avibactam; BLI in combination with a β-lactam
Procedure, shortened: as §1

SMILES | activity against bacterial strains that express the class D cephalosporinase OXA-15, compared with Avibactam [1] | activity and/or spectrum of activity against bacterial strains that express KPC β-lactamases, compared with Avibactam [2]
N[C@@H]1CN[C@H](c2nnc([C@@H]3CC[C@@H]4CN3C(=O)N4OS(=O)(=O)O)o2)C1 [Compound 760, (2S,5R)-2-(5-((2S,4S)-4-aminopyrrolidin-2-yl)-1,3,4-oxadiazol-2-yl)-7-oxo-1,6-diazabicyclo[3.2.1]octan-6-yl hydrogen sulfate] | more active than Avibactam | more active than Avibactam
N[C@H]1CN[C@@H](c2nnc([C@@H]3CC[C@@H]4CN3C(=O)N4OS(=O)(=O)O)o2)C1 [Compound 761, (2S,5R)-2-(5-((2R,4R)-4-aminopyrrolidin-2-yl)-1,3,4-oxadiazol-2-yl)-7-oxo-1,6-diazabicyclo[3.2.1]octan-6-yl hydrogen sulfate] | more active than Avibactam | more active than Avibactam
N[C@H]1CN[C@H](c2nnc([C@@H]3CC[C@@H]4CN3C(=O)N4OS(=O)(=O)O)o2)C1 [Compound 762, (2S,5R)-2-(5-((2S,4R)-4-aminopyrrolidin-2-yl)-1,3,4-oxadiazol-2-yl)-7-oxo-1,6-diazabicyclo[3.2.1]octan-6-yl hydrogen sulfate] | more active than Avibactam | more active than Avibactam
N[C@@H]1CN[C@@H](c2nnc([C@@H]3CC[C@@H]4CN3C(=O)N4OS(=O)(=O)O)o2)C1 [Compound 763, (2S,5R)-2-(5-((2R,4S)-4-aminopyrrolidin-2-yl)-1,3,4-oxadiazol-2-yl)-7-oxo-1,6-diazabicyclo[3.2.1]octan-6-yl hydrogen sulfate] | more active than Avibactam | more active than Avibactam
O=C1N2C[C@@H](CC[C@H]2c2nnc(CC3CCNC3)o2)N1OS(=O)(=O)O (stereo partly drawn) [Compound 764, (2S,5R)-7-oxo-2-(5-(pyrrolidin-3-ylmethyl)-1,3,4-oxadiazol-2-yl)-1,6-diazabicyclo[3.2.1]octan-6-yl hydrogen sulfate] | more active than Avibactam | more active than Avibactam
O=C1N2C[C@@H](CC[C@H]2c2nnc(CN[C@H]3CCNC3)o2)N1OS(=O)(=O)O [Compound 765, (2S,5R)-7-oxo-2-(5-(((S)-pyrrolidin-3-ylamino)methyl)-1,3,4-oxadiazol-2-yl)-1,6-diazabicyclo[3.2.1]octan-6-yl hydrogen sulfate] | more active than Avibactam | more active than Avibactam
O=C1N2C[C@@H](CC[C@H]2c2nnc(CN[C@@H]3CCNC3)o2)N1OS(=O)(=O)O [Compound 766, (2S,5R)-7-oxo-2-(5-(((R)-pyrrolidin-3-ylamino)methyl)-1,3,4-oxadiazol-2-yl)-1,6-diazabicyclo[3.2.1]octan-6-yl hydrogen sulfate] | more active than Avibactam | more active than Avibactam
N=C1NCC(c2nnc([C@@H]3CC[C@@H]4CN3C(=O)N4OS(=O)(=O)O)o2)N1 (stereo partly drawn) [Compound 767, (2S,5R)-2-(5-(2-iminoimidazolidin-4-yl)-1,3,4-oxadiazol-2-yl)-7-oxo-1,6-diazabicyclo[3.2.1]octan-6-yl hydrogen sulfate] | more active than Avibactam | more active than Avibactam
N[C@H]1CC[C@@H](c2nnc([C@@H]3CC[C@@H]4CN3C(=O)N4OS(=O)(=O)O)o2)C1 [Compound 768, (2S,5R)-2-(5-((1R,3S)-3-aminocyclopentyl)-1,3,4-oxadiazol-2-yl)-7-oxo-1,6-diazabicyclo[3.2.1]octan-6-yl hydrogen sulfate] | more active than Avibactam | more active than Avibactam
O=C1N2C[C@@H](CC[C@H]2c2nnc(CCNC3CCNCC3)o2)N1OS(=O)(=O)O [Compound 770, (2S,5R)-7-oxo-2-(5-(2-(piperidin-4-ylamino)ethyl)-1,3,4-oxadiazol-2-yl)-1,6-diazabicyclo[3.2.1]octan-6-yl hydrogen sulfate] | more active than Avibactam | more active than Avibactam
O=C1N2C[C@@H](CC[C@H]2c2nnc(CCCNC3CCNCC3)o2)N1OS(=O)(=O)O [Compound 771, (2S,5R)-7-oxo-2-(5-(3-(piperidin-4-ylamino)propyl)-1,3,4-oxadiazol-2-yl)-1,6-diazabicyclo[3.2.1]octan-6-yl hydrogen sulfate] | more active than Avibactam | more active than Avibactam
O=C1N2C[C@@H](CC[C@H]2c2nnc(CCCCNC3CCNCC3)o2)N1OS(=O)(=O)O [Compound 772, (2S,5R)-7-oxo-2-(5-(4-(piperidin-4-ylamino)butyl)-1,3,4-oxadiazol-2-yl)-1,6-diazabicyclo[3.2.1]octan-6-yl hydrogen sulfate] | more active than Avibactam | more active than Avibactam
NC1CCN(Cc2nnc([C@@H]3CC[C@@H]4CN3C(=O)N4OS(=O)(=O)O)o2)CC1 [Compound 774, (2S,5R)-2-(5-((4-aminopiperidin-1-yl)methyl)-1,3,4-oxadiazol-2-yl)-7-oxo-1,6-diazabicyclo[3.2.1]octan-6-yl hydrogen sulfate] | more active than Avibactam | more active than Avibactam
O=C1N2C[C@@H](CC[C@H]2c2nnc(CCN3CCNCC3)o2)N1OS(=O)(=O)O [Compound 776, (2S,5R)-7-oxo-2-(5-(2-(piperazin-1-yl)ethyl)-1,3,4-oxadiazol-2-yl)-1,6-diazabicyclo[3.2.1]octan-6-yl hydrogen sulfate] | more active than Avibactam | more active than Avibactam
O=C1N2C[C@@H](CC[C@H]2c2nnc(CN3CCNCC3)o2)N1OS(=O)(=O)O [Compound 777, (2S,5R)-7-oxo-2-(5-(piperazin-1-ylmethyl)-1,3,4-oxadiazol-2-yl)-1,6-diazabicyclo[3.2.1]octan-6-yl hydrogen sulfate] | more active than Avibactam | more active than Avibactam
